Source: US20220079962A1, “NUTRITIONAL COMPOSITION COMPRISING 2'FUCOSYLLACTOSE AND DIETARY BUTYRATE” (N.V. Nutricia, priority 2019, published 2022)

Columns and labels:
[1] = tested on: fecal slurry microbiota of breast fed infants; experiment: Anaerobic fermentation of infant fecal slurry (BioLector Pro), acidification; design: species or system human; conditions: no pathogen spiking
Protocol: Anaerobic fermentation of fecal slurry samples was tested in a BioLector Pro microfluidics mini multifermentor. Fecal slurry samples were collected from breast fed infants and from formula fed infants. These fecal slurry samples were processed by adding 0.6 grams feces in 40 ml Baby Reichardt V.6 medium+mucus+Ammonium sulfate+lactate and acetate. The resulting solutions were inserted to the BioLector Pro microfluidics mini multifermentor. The test legs were supplemented with 3-GL, 2′-FL, 3-GL+2′-FL, and GOS/FOS. The control leg was supplemented with sterile water.
After fermentation the fermented solutions were tested for SCFA content (in particular acetic acid, propionic acid, butyric acid and isobutyric acid), ammonia content, lactate content and pathogen concentration. Also DNA-isolation+identification and 16s sequencing was performed to determine the composition of the microbiota.
A 32 well plate that can handle low pH was used. […]
The experiment was started, and pH setpoint was either 5.5 (facial inoculum from infant 1, vaginally born, breast fed) or pH 6.0 (Inoculum from infant 2, vaginally born, breast fed) with continuous pH regulation, and temperature 37° C., humidity 85%, OD control. […] For both inocula the extent of fermentation, as measured by NaOH consumption, i.e. acid production, was highest with the combination of 3′-GU2′-FL, when compared to 3′-GL or 2′-FL alone. […]

[2] = tested on: human peripheral blood mononuclear cells (PBMC); experiment: PBMC cytokine levels, CD3/CD28 stimulated condition; type: cell-based; conditions: for Relative level of CCL17, observed / Relative level of IL-4, observed / Relative level of IL-13, observed: blanc = 1, 0.2 wt % 2′-FL, 0.1 wt % 3′-GL, mean
Protocol: Isolation of PBMC from healthy donors: Human peripheral blood mononuclear cells (PBMC) from healthy donors were isolated from buffy coats (Sanquin, Amsterdam, the Netherlands). PBMC were obtained by centrifugation using Leucosep tubes (Greiner Bio-One). PBMC were collected and washed in PBS (Gibco, Thermo Fisher Technologies)+2% heat-inactivated FCS (Invitrogen), followed by hypotonic lysis of erythrocytes with sterile lysis buffer (0.15 M NH4Cl, 0.01 M KHCO3 and 0.1 mM EDTA, pH of 7.4 at 4° C., all from Merck, Darmstadt, Germany). After lysis, the PBMC were resuspended in freezing medium (70% RPMI 1640 medium (Gibco, Thermo Fisher Technologies) supplemented with 10% heat-inactivated FCS and 100 U/ml penicillin-streptomycin, 20% heat-inactivated FCS and 10% DMSO (Sigma)) and cryopreserved.
PBMC activation model: PBMC (0.2.10^6 cell/well) were cultured in 96-well flat bottom plates (Corning). For 24 hours the cells were pre-incubated with 2′-FL (Jennewein), 3′-GL (0-0.3% w/v; Carbosynth) or sodium butyrate (0.2 mM; Sigma Aldrich) and combinations thereof. Subsequently, the cells were CD3/CD28-activated (Pelicluster CD3 and Pelicluster CD28, Sanquin) for an additional 24 hours. After incubation, IFNγ was measured by ELISA in the supernatants (see below). To determine cell activity after stimulation, PBMC were incubated with cell proliferation reagent WST-1 (10 μl; Roche) and/or 10% Triton (5 μl; negative control). After 3 hours, absorbance was measured at OD450 nm and OD650 nm and cell activity was calculated according to manufacturer's instructions.
Cytokine production of PBMC: PBMC were incubated with indicated reagents. After incubation, the supernatants were collected and IL2, IL6, IL10, IL13, IL21, TNFα, IFNγ, MIF, CCL1, CCL13, CCL17, CCL20, CCL22 and CXCL8-11 levels were measured by conducting a validated multiplex immunoassay based on Luminex technology (xMAP, Luminex Austin Tex. USA). Acquisition was conducted with the Biorad FlexMAP3D (Biorad laboratories, Hercules USA) in combination with xPONENT software version 4.2 (Luminex). Data was analyzed by 5-parametric curve fitting using Bio-Plex Manager software, version 6.1.1 (Biorad).
After PBMC stimulation, cell culture supernatants were collected, after which cytokine responses were measured in order to test immune responsiveness of the cells. […] In addition, since each donor is reacting in its own efficiency onto the T cell stimulus, we calculated the individual index of cytokine response by dividing the intervention induced response by the basal stimulated response.
Subsequently, in order to test the direct effect of specific compounds on PBMC activity, the cells were activated with CD3/CD28 for 24 hours after a pre-incubated for 24 h with either 2′-FL, 3′-GL and combinations thereof. In addition, since each donor is reacting in its own efficiency onto the T cell stimulus, the individual index of cytokine response was calculated by dividing the intervention induced response by the basal stimulated response (the blanc is set at 1). In this way the intervention within 10 different donors has been studied.

Bifidobacteria = experiment: Fecal slurry fermentation, CFU of total Bifidobacteria
Protocol: A 32 well plate that can handle low pH was used. The wells of this plate were filled with fecal solution. 2.5% (w/v) of the different sterile carbohydrate solutions (3′-GL, 2′-FL, 2′-FL/3′-GL (2.0+0.5%). and Glucose were added to the fecal slurry according to a template.
The experiment was started, and pH setpoint was either 5.5 (facial inoculum from infant 1, vaginally born, breast fed) or pH 6.0 (Inoculum from infant 2, vaginally born, breast fed) with continuous pH regulation, and temperature 37° C., humidity 85%, OD control. At 4, 8 and 24 hours a sample is taken for CFU determination on TOS-propionate MUP agar (total Bifidobacteria), XLD agar for Salmonella enteriditis S29, and Simons citrate inositol agar for Klebsiella pneumonia K2 and for SCFA, D- and L Lactate and ammonia analysis. Fecal pellet was used for 16s DNA sequencing. For both inocula the extent of fermentation, as measured by NaOH consumption, i.e. acid production, was highest with the combination of 3′-GU2′-FL, when compared to 3′-GL or 2′-FL alone. The rate of initial acidification was high for 3′-GL and for 3′-GL/2′-FL. […] As the amount of carbohydrates that can be fermented is the same in the reaction vessels, the higher total acidification with the combination is indicative for an unexpected, synergistic effect of the combination of 2′-FL and 3′-GL. The SCFA that were produced was for the largest part acetic acid. Also L-lactic acid was produced.

| Molecule | extent of fermentation, as measured by NaOH consumption, i.e. acid production ([1]; both inocula, 2.5% (w/v) carbohydrate) | CCL17 levels [2] | levels of IL-4 and IL-13 compared to control [2] | Relative level of CCL17, observed [2] | Relative level of IL-4, observed [2] | Relative level of IL-13, observed [2] | Growth of bifidobacteria (Bifidobacteria) | rate of initial acidification [1] | effect on bifidobacteria (Bifidobacteria; inoculum of baby 2) |
| --- | --- | --- | --- | --- | --- | --- | --- | --- | --- |
| C[C@@H]1O[C@@H](O[C@H]2[C@H](O[C@H]3[C@H](O)[C@@H](O)C(O)O[C@@H]3CO)O[C@H](CO)[C@H](O)[C@@H]2O)[C@@H](O)[C@H](O)[C@@H]1O (stereo partly drawn) [2′-FL, α-L-Fuc-(1→2)-β-D-Gal-(1→4)-D-Glc] | slower and lower acidification | no significant effect on CCL17 levels | had no effect on the levels of IL-4 and IL-13 | 1.061 | 0.9887 | 1.039 | Growth of bifidobacteria was observed | – | – |
| Gal (beta 1-3)-Gal (beta 1-4)-Glc [3′-GL] | – | no significant effect on CCL17 levels | a decrease was detected | 0.6212 | 0.5825 | 0.5472 | Growth of bifidobacteria was observed | high | highest |
